Data reported in patent US10501411B2, “Substituted benzamides” (Hoffmann-La Roche Inc., priority 2009, dated 2019).
pKd: −log10 of the molar value.

What was measured:
rat TAAR1 = rat TAAR1 (Rattus norvegicus (Rat), UniProt Q923Y9); test: Radioligand binding assay on rat TAAR1; details: for Ki: rat TAAR1, HEK-293 membranes, second value of the mouse/rat pair
Experimental: (§1) Construction of TAAR Expression Plasmids and Stably Transfected Cell Lines
(§2) For the construction of expression plasmids the coding sequences of human, rat and mouse TAAR 1 were amplified from genomic DNA essentially as described by Lindemann et al.. The Expand High Fidelity PCR System (Roche Diagnostics) was used with 1.5 mM Mg^2+ and purified PCR products were cloned into pCR2.1-TOPO cloning vector (Invitrogen) following the instructions of the manufacturer. PCR products were subcloned into the pIRESneo2 vector (BD Clontech, Palo Alto, Calif.), and expression vectors were sequence verified before introduction in cell lines.
(§3) HEK293 cells (ATCC #CRL-1573) were cultured essentially as described by Lindemann et al. (2005). For the generation of stably transfected cell lines HEK293 cells were transfected with the pIRESneo2 expression plasmids containing the TAAR coding sequences (described above) with Lipofectamine 2000 (Invitrogen) according to the instructions of the manufacturer, and 24 hrs post transfection the culture medium was supplemented with 1 mg/ml G418 (Sigma, Buchs, Switzerland). After a culture period of about 10 d clones were isolated, expanded and tested for responsiveness to trace amines (all compounds purchased from Sigma) with the cAMP Biotrak Enzyme immunoassay (EIA) System (Amersham) following the non-acetylation EIA procedure provided by the manufacturer.
Radioligand Binding Assay on Rat TAAR1
(§4) Membrane Preparation and Radioligand Binding.
HEK-293 cells stably expressing rat TAAR1 were maintained at 37° C. and 5% CO2 in DMEM high glucose medium, containing fetal calf serum (10%, heat inactivated for 30 min at 56° C.), penicillin/streptomycin (1%), and 375 μg/ml geneticin (Gibco). Cells were released from culture flasks using trypsin/EDTA, harvested, washed twice with ice-cold PBS (without Ca^2+ and Mg^2+), pelleted at 1,000 rpm for 5 min at 4° C., frozen and stored at −80° C. Frozen pellets were suspended in 20 ml HEPES-NaOH (20 mM, pH 7.4) containing 10 mM EDTA and homogenized with a Polytron (PT 6000, Kinematica) at 14,000 rpm for 20 s. The homogenate was centrifuged at 48,000×g for 30 min at 4° C. Subsequently, the supernatant was removed and discarded, and the pellet resuspended in 20 ml HEPES-NaOH (20 mM, pH 7.4) containing 0.1 mM EDTA using the Polytron (20 s at 14,000 rpm). This procedure was repeated and the final pellet resuspended in HEPES-NaOH containing 0.1 mM EDTA and homogenized using the Polytron. […] With each new membrane batch the dissociation constant (Kd) was determined via a saturation curve. […] After addition of 45 μl of Microscint 40 (PerkinElmer) the Unifilter-96 plate was sealed and after 1 hr the ratioactivity counted using a TopCount Microplate Scintillation Counter (Packard Instrument Company).

mouse TAAR1 = mouse TAAR1 (Mus musculus (Mouse), UniProt Q923Y8); test: Radioligand binding assay on mouse TAAR1; details: for Ki: mouse TAAR1, HEK-293 membranes, first value of the mouse/rat pair
Experimental: as §1, §2, §3
Radioligand Binding Assay on Mouse TAAR1
as §4
HEK-293 cells stably expressing mouse TAAR1 were maintained at 37° C. and 5% CO2 in DMEM high glucose medium, containing fetal calf serum (10%, heat inactivated for 30 min at 56° C.), penicillin/streptomycin (1%), and 375 μg/ml geneticin (Gibco). […] With each new membrane batch the dissociation constant (Kd) was determined via a saturation curve. […] After addition of 45 μl of Microscint 40 (PerkinElmer) the Unifilter-96 plate was sealed and after 1 hr the ratioactivity counted using a TopCount Microplate Scintillation Counter (Packard Instrument Company).

Sequence of mouse TAAR1 (Q923Y8 whole entry): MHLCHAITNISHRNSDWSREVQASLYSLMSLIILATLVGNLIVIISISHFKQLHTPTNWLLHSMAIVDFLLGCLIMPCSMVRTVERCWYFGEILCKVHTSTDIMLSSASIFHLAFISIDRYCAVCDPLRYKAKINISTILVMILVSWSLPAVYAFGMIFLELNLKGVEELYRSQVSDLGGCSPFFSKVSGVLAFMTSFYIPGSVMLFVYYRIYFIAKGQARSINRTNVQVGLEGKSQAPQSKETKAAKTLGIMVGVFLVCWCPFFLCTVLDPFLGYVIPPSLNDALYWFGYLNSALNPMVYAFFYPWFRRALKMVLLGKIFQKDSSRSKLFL
Sequence of rat TAAR1 (Q923Y9 whole entry): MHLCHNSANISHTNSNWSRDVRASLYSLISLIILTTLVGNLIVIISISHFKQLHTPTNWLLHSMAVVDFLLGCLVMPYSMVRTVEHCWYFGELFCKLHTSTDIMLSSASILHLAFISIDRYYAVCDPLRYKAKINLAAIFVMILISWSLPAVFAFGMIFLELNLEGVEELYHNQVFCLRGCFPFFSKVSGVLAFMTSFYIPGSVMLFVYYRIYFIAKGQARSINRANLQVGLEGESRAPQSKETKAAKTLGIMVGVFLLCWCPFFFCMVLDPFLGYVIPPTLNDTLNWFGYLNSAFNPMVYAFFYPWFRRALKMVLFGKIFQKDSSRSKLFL

Compound	Ki (rat TAAR1) [µM]	Ki (mouse TAAR1) [µM]	pKd (rat TAAR1; rat TAAR1 membranes, saturation curve, read-out: dissociation constant (Kd) of the radioligand)	pKd (mouse TAAR1; mouse TAAR1 membranes, saturation curve, read-out: dissociation constant (Kd) of the radioligand)
CC1(c2ccc(NC(=O)c3ccc(Cl)cc3)cc2)CCN(Cc2ccccc2)C1 (racemic) [Example 40, (RS)—N-[4-(1-Benzyl-3-methyl-pyrrolidin-3-yl)-phenyl]-4-chloro-benzamide]	0.522			
O=C(Nc1cccc(OC2CCNC2)c1)c1ccc(Cl)cc1 (racemic) [Example 70, (RS)-4-Chloro-N-[3-(pyrrolidin-3-yloxy)-phenyl]-benzamide]	0.0935	0.0097		
CC(CC(F)(F)F)OC(=O)Nc1ccc(C2CCNC2)cc1 (racemic) [Example 131, (RS)-(4-Pyrrolidin-3-yl-phenyl)-carbamic acid (RS)-3,3,3-trifluoro-1-methyl-propyl ester]	0.0219	0.0208		
CCN(C[C@H]1COC(N)=N1)c1ccccc1 [^3[H]—(S)-4-[(ethyl-phenyl-amino)-methyl]-4,5-dihydro-oxazol-2-ylamine, reference compound]			~8.64	~9.15
